For 1 compound, Kd results are on record in article PMC8703531, “Structure of ABCB1/P-Glycoprotein in the Presence of the CFTR Potentiator Ivacaftor” (Membranes, 2021).

For the assay, the target named is T1, murine P-glycoprotein (P-gp, ABCB1; abcb1a, mdr3) (Mus musculus, UniProt P21447).
T1 construct: opti-mdr3 gene product expressed in P. pastoris, purified in DDM
Nature of the assay: thermostability shift of purified protein (static light scattering, tryptophan fluorescence, CPM dye) giving KD; cryo-EM with additional density (map a). Format: binding.

T1 sequence (P21447 whole entry): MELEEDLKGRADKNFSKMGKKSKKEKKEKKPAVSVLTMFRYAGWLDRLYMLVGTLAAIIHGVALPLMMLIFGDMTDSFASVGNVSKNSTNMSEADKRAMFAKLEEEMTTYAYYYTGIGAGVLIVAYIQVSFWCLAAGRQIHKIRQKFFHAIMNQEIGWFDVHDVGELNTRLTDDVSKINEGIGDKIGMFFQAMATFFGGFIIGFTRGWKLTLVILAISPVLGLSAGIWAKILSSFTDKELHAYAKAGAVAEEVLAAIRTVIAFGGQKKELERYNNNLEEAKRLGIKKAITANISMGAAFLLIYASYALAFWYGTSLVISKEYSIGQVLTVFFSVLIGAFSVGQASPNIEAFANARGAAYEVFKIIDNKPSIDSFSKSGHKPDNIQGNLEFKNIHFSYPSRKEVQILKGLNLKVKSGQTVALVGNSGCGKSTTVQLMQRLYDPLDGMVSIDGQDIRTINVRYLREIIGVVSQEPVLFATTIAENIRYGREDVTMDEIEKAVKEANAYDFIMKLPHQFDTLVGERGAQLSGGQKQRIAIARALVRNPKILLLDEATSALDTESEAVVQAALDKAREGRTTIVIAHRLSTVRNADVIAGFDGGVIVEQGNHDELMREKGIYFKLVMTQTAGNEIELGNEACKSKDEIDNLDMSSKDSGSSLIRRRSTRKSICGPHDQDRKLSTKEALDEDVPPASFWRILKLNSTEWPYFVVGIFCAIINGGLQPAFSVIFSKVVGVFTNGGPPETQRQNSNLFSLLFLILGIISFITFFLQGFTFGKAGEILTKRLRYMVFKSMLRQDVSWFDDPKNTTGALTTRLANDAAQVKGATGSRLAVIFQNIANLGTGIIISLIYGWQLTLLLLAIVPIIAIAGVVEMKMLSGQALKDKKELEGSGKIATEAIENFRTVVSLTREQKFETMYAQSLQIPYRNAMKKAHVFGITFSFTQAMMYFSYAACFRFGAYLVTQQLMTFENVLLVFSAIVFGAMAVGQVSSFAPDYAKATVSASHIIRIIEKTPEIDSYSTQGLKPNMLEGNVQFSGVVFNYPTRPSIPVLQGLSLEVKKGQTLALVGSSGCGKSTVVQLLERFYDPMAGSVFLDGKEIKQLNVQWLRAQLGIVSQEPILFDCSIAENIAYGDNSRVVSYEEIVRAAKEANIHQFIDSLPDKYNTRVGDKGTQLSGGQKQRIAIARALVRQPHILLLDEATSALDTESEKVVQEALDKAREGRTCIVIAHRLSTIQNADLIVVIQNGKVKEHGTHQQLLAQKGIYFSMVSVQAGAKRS

Usually Kd stands for the constant that tells how readily two partners part at equilibrium. Regarding `CC(C)(C)c1cc(C(C)(C)C)c(NC(=O)c2c[nH]c3ccccc3c2=O)cc1O` [ivacaftor], the Kd amounted to 200 nM.
